The results in this text go back to BindingDB's records for doi:10.1074/jbc.M114.556381 (Central South University, 2014).

This assay concerns the target Prokineticin receptor 2 (Homo sapiens, UniProt Q8NFJ6). The assay is described as follows: Calcium Mobilization Assay. Conditions: pH 7.5; 37 °C. Here is the method: Briefly, Chinese hamster ovary cells stably expressing the photoprotein aequorin were transiently transfected with WT or respective mutant PKR2-expressing plasmids. Two days after transfection, the cells were charged in Opti-MEM (Invitrogen) containing 8 μM coelenterazine cp (Invitrogen) at 37 °C for 2 h. Cells were detached by brief trypsinization and maintained in assay buffer (Hanks' balanced salt solution plus 10 mM HEPES, pH 7.5, and 0.1% bovine serum albumin) at approximately 5 × 10^5 cells/ml. Luminescence measurements were made using a Sirius Single Tube Luminometer (Berthold Detection Systems GmbH, Pforzheim, Germany). PK2 was serially diluted in assay buffer and mixed with cells. The luminescence was monitored for 35 s (peak 1), then 100 μl of 1% Triton X-100 was injected to lyse the cells, and the luminescence was monitored continuously for another 20 s (peak 2). The area under the curve of the peak 1 was divided by the total area under the curve of peaks 1 and 2, and the maximal responses from WT receptors were normalized to 100.

Chain of Prokineticin receptor 2 (Q8NFJ6 whole entry): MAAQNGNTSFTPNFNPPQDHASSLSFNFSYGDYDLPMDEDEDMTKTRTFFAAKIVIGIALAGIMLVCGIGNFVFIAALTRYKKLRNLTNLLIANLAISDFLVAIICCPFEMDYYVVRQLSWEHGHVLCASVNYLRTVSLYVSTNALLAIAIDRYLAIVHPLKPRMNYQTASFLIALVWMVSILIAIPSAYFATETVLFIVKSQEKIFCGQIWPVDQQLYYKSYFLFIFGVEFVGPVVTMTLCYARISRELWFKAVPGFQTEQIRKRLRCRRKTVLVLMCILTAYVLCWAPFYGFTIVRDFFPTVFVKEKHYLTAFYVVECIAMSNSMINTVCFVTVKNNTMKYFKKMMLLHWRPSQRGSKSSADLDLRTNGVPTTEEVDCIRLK

As to `CC(C)CN(Cc1cc(Cl)c2c(c1)OCCCO2)C(=O)C1CCN(Cc2ccccc2)C1` (racemic) [US8722896, (+/-)-1-Benzyl-N-(9-chloro-3,4-dihydro-2H-1,5-benzodioxepin-7-ylmethyl)-N-isobutylpyrrolidine-3-carboxamide], the concentration for half-maximal inhibition (IC50) turned out to be 0.102 µM.
